Assays:
Assay type in all cases: cell-based, human
MU89 melanoma cells = assay: Tumor cell/T cell co-culture IL-2 ELISA (Melan-A/MART-1 specific TCR Jurkat line J-TCR-M1 as responder); details: for Fold increase (IL-2 relative to untreated controls), hits from pilot screen: about 10 μM, 72 hours treatment, then 24 hours co-culture; for Outcome in the primary co-culture IL-2 screen (hit or not): ICCB Known Bioactives Library, 10 μM
Description: The assay relies on the use of an antigen-specific responder T cell line. […] The chosen TCR reacts specifically to a Melan-A/MART-1 decapeptide (26[…]35) presented by HLA-A2, with appropriate triggering of T cell activation. We then used a lentiviral vector system for transduction of this specific TCR into the J.RT3-T3.5 T cell line, a Jurkat cell derivative which fails to express endogenous surface TCR through a mutation in its beta chain.
We evaluated several candidate melanoma cell lines for the ability to stimulate the J-TCR-M1 cell line. Levels of Melan-A/MART-1 (determined by intracellular staining and flow cytometry) and corresponding levels of induced IL-2 (determined by coculture with J-TCR-M1 and IL-2 ELISA) were tested for different melanoma cell lines.
The 480 compounds were tested in six parallel 96 well plates. The first two columns (16 wells) of each plate were used for standards (8 wells), untreated controls (4 wells), and positive controls (4 wells). The other ten columns (80 wells) were used for testing compounds in separate wells. A100 μl aliquot containing 5×10^4 MU89 cells was added to wells that contained 0.1 μl of each test drug diluted in 50 μl of RPMI media. The plates were incubated with drug for 72 hours at 37° C. in a humidified incubator with 5% CO2. After 72 hours, each well received 2.5×10^4J-TCR-M1 cells in 50 μl medium, and then incubated a further 24 hours. At the conclusion of the 24 hour co-culture period, each plate was centrifuged to pellet the cells and 100 μl supernatant fluid was collected from each well and plated in a parallel 96 well flat bottom well for IL-2 ELISA assay.
Melanoma cells were treated with hits from the primary screen for three days prior to counting and plating for the coculture assay (cells were washed and resuspended in fresh medium that no longer contained the treatment agents during the co-culture). A100 μl volume of 5×10^5 cells/ml tumor cells were mixed with 50 μl of […] T cells in a 96-well V-bottom plate and incubated overnight (16-24 hours). Plates were centrifuged to pellet the cells and 100 μl of supernatant fluid was removed from each well for cytokine assay. To assess antigen-specific T cell responses, a final concentration of 3.33 μg/ml Melan-A/MART-1 peptide (26[…]35 (A27L from wild type)) was added to the co-culture.
The protocol for evaluation of the cytokine IL-2 was performed using a the BD OptEAI kit, human IL-2 ELISA set from BD Biosciences (San Diego, Calif.) following the manufacturer's recommendations. The absorbance 450 nm was read in a BioRad 3550 plate reader. A standard curve using known concentrations of IL-2 (from 500 to 8 pg/ml) was included in each ELISA plate. IL-2 levels for experimental samples (pg/ml) were calculated from the standard curve.
100 μl of 5×10^5 tumor cells/ml were mixed with 50 μl of T cells (at 5×10^5 cells/ml) in a 96-well V-bottom plate and incubated overnight (16-24 hours). Plates were centrifuged to pellet the cells and 120 μl of supernatant fluid was removed from each well for cytokine assay. To assess antigen-specific T cell responses, 3.33 μg/ml Melan-A/MART-1 peptide was added to the co-culture.
The protocols for evaluation of either IL-2 or IFN-gamma were similar, following the manufacturer's recommendations. A standard curve using known concentrations of each cytokine was included in each ELISA experiment. ELISA plates were coated with capture antibody and then washed with 1×PBS 0.5% Tween-20. Wells were blocked with 1×PBS 1% FBS for 1 hour and rewashed.

MU89 melanoma cell line = assay: Antibody staining and flow cytometry (intracellular Melan-A/MART-1, gp100, TRP-2; surface MHC Class I/II); details: MU89 cells
Method: (§1) Cells were fixed with 1% formaldehyde, permeabilized with 0.1% saponin, stained with monoclonal antibodies to melanocyte antigens. Antibodies were obtained with specificity for: MART-1 from Vector Labs (Burlingame, Calif.); gp100 HMB45 from DakoCytomation (Carpinteria, Calif.) and then visualized with goat anti-mouse FITC-conjugated secondary antibody from Invitrogen (Fredrick, Md.). The level of EGFP was determined by flow cytometry of unfixed cells that were washed and resuspended in 1×PBS.
(§2) Cells were plated at a density of 1×10^5 in 1 ml of medium in a 24-well plate and cultured for varying times as indicated in results. […] After incubation, cells were collected by trypsinization and then evaluated by flow cytometry.
(§3) Intracellular staining and flow cytometric analyses of cytoplasmic Melan-A/MART-1, and gp100 expression were performed as described previously. Cells were fixed with 1% formaldehyde, permeabilized with 0.1% saponin, stained with monoclonal antibodies to melanocyte antigens. Antibodies were obtained with specificity for: Melan-A/MART-1 from Vector Labs (Burlingame, Calif.); gp100/HMB45 from DakoCytomation (Carpinteria, Calif.) and then visualized with goat anti-mouse FITC-conjugated secondary antibody from Invitrogen (Frederick, Md.). The level of EGFP was determined by flow cytometry of unfixed cells washed and resuspended in 1×PBS. Surface staining of MHC Class I was carried out using the antibody W6/32 on cells harvested with Cell Stripper from MediaTech Inc. (Manassas, Va.) and carried out on ice.
(§4) Cell were seeded at 1×10^6 cells in a T25 flask with 10 ml of media for the 4 day IFN-beta pre-treatments. Cells were then harvested and plated in 24 well plate at 1×10^5 cells per well in 1 ml of media for 3 day treatments.
(§5) For surface staining of HLA Class I and II antigens, cells were harvested using CellStripper™ from Mediatech (Manassas, Va.). All staining steps were performed on ice. Following a first incubation with antibody to Class I (W6/32) or Class II (L243) for 30 minutes. Stained cells were washed twice with cold PBS and then stained with a goat anti-mouse FITC secondary antibody to allow for quantitative analysis by flow cytometry. For evaluation of cytoplasmic antigens, including Melan-A/MART-1 and gp100, cells were first fixed in paraformaldehyde and permeabilized with saponin as previously described. Staining for cytoplasmic antigens was carried out at room temperature (22° C.).

[1] = system: MCF-7 breast cancer cells; assay: Surface antibody staining and flow cytometry (MHC Class I/II); details: MCF-7 cells; Table 20; single agent or simultaneous combination
Method: as §3, §4, §5

[2] = system: HeLa cervical carcinoma cells; assay: as above; details: HeLa cells
Method: as §3, §4, §5

U2-OS osteosarcoma cells = assay: as above; details: U2-OS cells; Table 20; single agent or simultaneous combination
Method: as §3, §4, §5

[3] = system: U-118 MG glioma cell line; assay: Antibody staining and flow cytometry (intracellular gp100; surface MHC Class I/II); details: U118 cells; Table 20; single agent or simultaneous combination
Method: as §1, §2, §3, §4, §5

[4] = Table 20, single agent or simultaneous combination
[5] = Table 21, no pre-treatment, treatment as labelled
[6] = Table 21, pre-treatment PU-H71 (3 days), then treatment as labelled
[7] = Table 21, substance given as pre-treatment (3 days) only, no subsequent treatment

Compound: COc1c(C=O)c(O)cc2c1C(=O)c1ccccc1C2=O [Damnacanthal]
- Fold increase (IL-2 relative to untreated controls), hits from pilot screen (MU89 melanoma cells): 2.1 fold

Compound: O=C1CN(/N=C/c2ccc(-c3ccc([N+](=O)[O-])cc3)o2)C(O)=N1 [Dantrolene]
- Fold increase (IL-2 relative to untreated controls), hits from pilot screen (MU89 melanoma cells): 2.4 fold

Compound: Fc1ccc(C(c2ccc(F)cc2)N2CCN(C/C=C/c3ccccc3)CC2)cc1 [Flunarizine]
- Fold increase (IL-2 relative to untreated controls), hits from pilot screen (MU89 melanoma cells): 11.9 fold

Compound: COc1ccc(Cl)cc1C(=O)NCCc1ccc(S(=O)(=O)NC(=O)NC2CCCCC2)cc1 [Glyburide]
- Fold increase (IL-2 relative to untreated controls), hits from pilot screen (MU89 melanoma cells): 2.6 fold

Compound: CCCCCCCCCCCCCCCCCCc1ccc(C(=O)C=CC(=O)O)cc1 [OBAA, 3-(4-octadecyl)benzoylacrylic acid]
- Fold increase (IL-2 relative to untreated controls), hits from pilot screen (MU89 melanoma cells): 5.9 fold

Compound: COc1cccc(-c2cc(=O)c3ccccc3o2)c1N [PD98059]
- Outcome in the primary co-culture IL-2 screen (hit or not) (MU89 melanoma cells): failed to be identified

Compound: N#CC(=C(/N)Sc1ccccc1N)/C(C#N)=C(\N)Sc1ccccc1N [U0126]
- Outcome in the primary co-culture IL-2 screen (hit or not) (MU89 melanoma cells): failed to be identified

Compound: CC[C@@]1(O)C(=O)OCc2c1cc1n(c2=O)Cc2cc3ccccc3nc2-1 [camptothecin]
- Outcome in the primary co-culture IL-2 screen (hit or not) (MU89 melanoma cells): failed to be identified

Compound: COc1cccc2c1C(=O)c1c(O)c3c(c(O)c1C2=O)C[C@@](O)(C(C)=O)C[C@@H]3O[C@H]1C[C@H](N)[C@H](O)[C@H](C)O1 [daunorubicin]
- Outcome in the primary co-culture IL-2 screen (hit or not) (MU89 melanoma cells): interferes with the direct co-culture assay

Compound: COc1cccc2c1C(=O)c1c(O)c3c(c(O)c1C2=O)C[C@@](O)(C(=O)CO)C[C@@H]3O[C@H]1C[C@H](N)[C@H](O)[C@H](C)O1 [doxorubicin]
- Outcome in the primary co-culture IL-2 screen (hit or not) (MU89 melanoma cells): failed to be identified

Compound: COc1cc([C@@H]2c3cc4c(cc3[C@@H](O[C@@H]3O[C@@H]5CO[C@@H](C)O[C@H]5[C@H](O)[C@H]3O)[C@H]3COC(=O)[C@H]23)OCO4)cc(OC)c1O [etoposide]
- Outcome in the primary co-culture IL-2 screen (hit or not) (MU89 melanoma cells): failed to be identified

Compound: IFN-G
- L243 (MHC Class II surface staining) (MU89 melanoma cell line; [4]): 64.3
- W6/32 (MHC Class I surface staining) (MU89 melanoma cell line; [4]): 86.7
- L243 (MHC Class II surface staining) (MU89 melanoma cell line; [5]): 81
- L243 (MHC Class II surface staining) (MU89 melanoma cell line; [6]): 90
- L243 (MHC Class II surface staining) (MU89 melanoma cell line; [7]): 64
- L243 (MHC Class II surface staining) [1]: 59.1
- W6/32 (MHC Class I surface staining) [1]: 478.5
- L243 (MHC Class II surface staining) [2, 4]: 86.0
- W6/32 (MHC Class I surface staining) [2, 4]: 464.8
- L243 (MHC Class II surface staining) [2, 5]: 97
- L243 (MHC Class II surface staining) [2, 6]: 33
- L243 (MHC Class II surface staining) [2, 7]: 76
- L243 (MHC Class II surface staining) (U2-OS osteosarcoma cells): 142.8
- W6/32 (MHC Class I surface staining) (U2-OS osteosarcoma cells): 397.1
- L243 (MHC Class II surface staining) [3]: 53.6
- W6/32 (MHC Class I surface staining) [3]: 232.8
